# Test results taken from patent US20230355605A1, “DRUG FOR ENHANCING FIBRINOLYTIC SYSTEM, AND USE THEREFOR” (priority 2020, published 2023).
# Experiments:
# [1] = tested on: t-PA; experiment: t-PA activity in blood, phase I repeated oral dose study; type: in vivo, human
# Protocol: The pharmacological activities (PAI-1 activity and t-PA activity) were evaluated using blood collected from the subjects before and after administration of the present compound or the placebo as test samples. Blood was collected before administration and 2, 4, and 8 hours after administration on the first day of the experiment (day 1) and day 7 after the start of the experiment, and on the other days, blood was collected once a day before administration (only before administration on days 2 to 6, day 8, and day 11 after the start of administration).
# After collecting blood samples from the subjects, the samples were treated with 0.5 M sodium citrate (pH of 4.3) and centrifuged at 4° C., 2,500 g for 15 minutes to obtain plasma. The collected plasma was used for measurement of t-PA activity and stored frozen at -80° C. until measurement.
# The t-PA activity was measured using a ZYMUPHEN tPA Activity kit (produced by HYPHEN BioMed). In this system, a plasma sample collected from a subject is reacted with human plasminogen to form plasmin by the action of tPA, the plasmin is reacted with a substrate specific to plasmin, and pNA, which is a degradation product produced, is measured by the absorbance at a wavelength of 405 nm with a plate reader.
# [2] = tested on: immature rat bone marrow erythrocytes; experiment: Micronucleus study in rats; conditions: in vivo
# Protocol: The present compound was orally administered to rats to examine its micronucleus-inducing properties and bone marrow cell proliferation suppressive effect on immature bone marrow erythrocytes.
# Specifically, the present compound was orally administered to rats twice 24 hours apart, and bone marrow smears were prepared 18 to 24 hours after the last administration. 2000 immature erythrocytes (IEs) were observed per individual, and the percentage of micronucleated immature erythrocytes (micronucleated IEs, MNIEs) contained in the immature erythrocytes [MNIEs (%)] was calculated. In addition, 1000 erythrocytes were observed as the total erythrocyte count per individual, and the percentage of IEs in the total erythrocytes [IEs (%)] was determined.
# [3] = molecular target: T1, hERG current (Homo sapiens, UniProt Q12809); experiment: Effect on hERG current (whole-cell patch clamp); type: cell-based; conditions: 0.1, 1, 10 µM; up to 10 µM; 10 minutes after application; hERG-expressing HEK293 cells
# T1 construct: expressed in transfected cells; host or cells: HEK293
# Protocol: The effect of the present compound on hERG current was examined by a whole-cell patch clamp method using HEK293 cells transfected with the human ether-a-go-go-related gene (hERG). This study was performed as part of a safety pharmacology core battery study to predict the risk of a drug-induced proarrhythmic effect, in particular, prolongation of QT interval on an electrocardiogram, in an in vitro study. The concentration of the present compound was set to 0.1, 1, and 10 µM, and the tail peak current suppression rate (%) 10 minutes after application relative to that before application was used as an index of the effect on hERG current. As a vehicle control, 0.1 v/v% DMSO was used, and as a positive control, 0.1 µmol/L of E-4031 was used.
# [4] = tested on: rats; experiment: Reproductive and developmental toxicity study (fertility and early embryogenesis); type: in vivo, rat; conditions: oral, male and female rats
# Excerpt: The effect of oral administration of the present compound on fertility and early embryogenesis up to implantation was examined using rats. Specifically, the present compound was orally administered to male and female rats for 2 weeks before mating, during mating, until the day before necropsy for the males, and until day 7 of gestation for the females, and the effect on fertility and early embryogenesis of the parents was examined. During the study period, the general conditions, body weights, and food consumption of all of the animals were observed and measured, and a fertility test was performed for the males and females. For the females, an estrous cycle test was performed, and a Cesarean section test was performed at day 13 of gestation. In the females, necropsy was performed at the time of Cesarean section, and in the males, necropsy was performed after completion of the Cesarean section of females.
# [5] = tested on: mouse model of bleomycin-induced pulmonary fibrosis; experiment: Mouse model of bleomycin-induced pulmonary fibrosis; type: in vivo
# Protocol: The improvement effect of the present compound on pulmonary fibrosis (remodeling after lung damage) was evaluated using a mouse model of bleomycin-induced pulmonary fibrosis. […] Because of similarity of histopathological changes to pulmonary fibrosis in humans, this mouse model is widely used for the evaluation of the drug efficacy.
# To a fibrosis mouse model (fibrosis model group) given a single dose of bleomycin (1.2 mg/mL), the present compound (0.75 mg/kg/day) was orally administered for 21 days (present compound administration group, n = 9), and biochemical analysis of the lungs and measurement of clinical conditions of the lungs were performed on day 22. For comparison, instead of the present compound, the solvent used to dissolve the present compound was administered to a fibrosis model group in the same manner (vehicle group, n = 10), and biochemical analysis and measurement of clinical conditions of the lungs were performed. As a positive control group, a dexamethasone administration group (0.25 mg/kg administration, n = 9) was used. The biochemical analysis was performed using lung hydroxyproline values as an index. The clinical conditions of the lungs were evaluated by performing Masson’s trichrome staining and calculating Ashcroft scores according to a report of Ashcroft et al. (Ashcroft T et al., J Clin Pathol, 1988; 41:467). The clinical conditions were confirmed by comparing a normal mouse group (normal group, n = 10) with the vehicle group (n = 10), and the improvement effect of the present compound on pulmonary fibrosis was evaluated by comparing the vehicle group (n = 10) with the present compound administration group (n = 9). Differences between the mean values of the groups were tested by the Bonferroni selected pairs test using Prism 4 (GraphPad Software).
# Table 1 and FIG. 3(A) and FIG. 3(B) show the results of comparisons of the lung hydroxyproline values and the Ashcroft scores in the groups. The mean values of the groups are expressed as mean±SD, and examination was performed at a 5% significance level.
# [6] = tested on: Salmonella typhimurium TA100, TA1535, TA98, TA1537 and Escherichia coli WP2uvrA; experiment: Mutagenicity study using bacteria (pre-incubation method); type: cell-based; conditions: five strains; metabolic activation method and direct method
# Protocol: The gene mutagenicity by the present compound was examined using bacteria.
# A study was conducted in the presence of a metabolic activator (hereinafter referred to as a “metabolic activation method”) and in the absence of a metabolic activator (hereinafter referred to as a “direct method”) by a pre-incubation method, using three strains, i.e., Salmonella typhimurium TA100 and TA1535, and Escherichia coli WP2uvrA, to detect base pair substitution gene mutations, and two strains, i.e., Salmonella typhimurium TA98 and TA1537, to detect frameshift gene mutations.
# [7] = day 22, present compound 0.75 mg/kg/day oral 21 days, dexamethasone 0.25 mg/kg, mean±SD
# T1 sequence (Q12809 whole entry): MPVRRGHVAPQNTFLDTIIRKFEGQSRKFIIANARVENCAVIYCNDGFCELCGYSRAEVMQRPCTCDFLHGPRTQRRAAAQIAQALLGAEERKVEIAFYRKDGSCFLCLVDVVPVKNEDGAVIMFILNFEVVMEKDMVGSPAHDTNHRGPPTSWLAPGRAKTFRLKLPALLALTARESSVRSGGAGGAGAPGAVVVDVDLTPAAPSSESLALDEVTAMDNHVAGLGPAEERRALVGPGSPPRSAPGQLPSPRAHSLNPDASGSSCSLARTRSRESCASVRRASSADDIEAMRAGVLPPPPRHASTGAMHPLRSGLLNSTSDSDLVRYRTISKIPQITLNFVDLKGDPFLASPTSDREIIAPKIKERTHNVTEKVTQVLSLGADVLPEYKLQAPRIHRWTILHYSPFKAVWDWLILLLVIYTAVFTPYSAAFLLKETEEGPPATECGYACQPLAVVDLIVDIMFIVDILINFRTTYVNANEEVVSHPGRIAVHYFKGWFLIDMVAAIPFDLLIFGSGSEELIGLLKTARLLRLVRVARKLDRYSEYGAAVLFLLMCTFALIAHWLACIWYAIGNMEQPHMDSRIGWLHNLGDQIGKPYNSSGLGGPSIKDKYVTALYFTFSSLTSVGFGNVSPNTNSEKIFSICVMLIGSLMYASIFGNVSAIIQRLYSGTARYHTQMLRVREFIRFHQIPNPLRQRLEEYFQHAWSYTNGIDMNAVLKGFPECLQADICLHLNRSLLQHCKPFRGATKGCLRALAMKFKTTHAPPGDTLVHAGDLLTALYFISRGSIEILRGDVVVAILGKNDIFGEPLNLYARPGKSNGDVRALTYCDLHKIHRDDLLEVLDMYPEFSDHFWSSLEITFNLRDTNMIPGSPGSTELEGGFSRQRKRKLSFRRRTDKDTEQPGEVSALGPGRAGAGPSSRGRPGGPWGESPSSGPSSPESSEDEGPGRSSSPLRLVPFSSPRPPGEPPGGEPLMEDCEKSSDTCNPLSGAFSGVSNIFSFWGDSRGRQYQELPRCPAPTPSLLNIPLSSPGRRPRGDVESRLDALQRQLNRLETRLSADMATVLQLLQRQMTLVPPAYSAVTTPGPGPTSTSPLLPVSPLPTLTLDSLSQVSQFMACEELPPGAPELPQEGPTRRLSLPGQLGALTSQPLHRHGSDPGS
smiles,measurement,setting,value
"O=C(Nc1ccc(Cl)cc1C(=O)[O-])c1cccc(-c2cccc3cccnc23)c1.[Na+] [present compound, sodium 5-chloro-2-({ [3-(quinolin-8-yl)phenyl]carbonyl}amino)benzoate]",t-PA activity in blood vs placebo,"[1]; 60 mg/day oral, days 1 and 7",neither PAI-1 activity nor t-PA activity was different
same,time after administration of maximal increase in t-PA activity,[1]; 120 mg/day oral,8 h
same,t-PA activity in blood,"[1]; 120 mg/day oral, days 1 and 7",increased
same,micronucleus-inducing effect on immature rat bone marrow erythrocytes,[2],no micronucleus-inducing effect
same,proliferation suppressive effect on bone marrow cells,[2],no proliferation suppressive effect
same,suppressive effect on hERG current (tail peak current suppression rate),[3],no suppressive effect
same,"no-observed-adverse-effect level in the parent animals, including fertility",[4],1000 mg/kg/day
same,no-observed-adverse-effect level with respect to early embryogenesis,[4],1000 mg/kg/day
same,Ashcroft score compared with vehicle group,[5]; 5% significance level,significantly lower
same,lung hydroxyproline value compared with vehicle group,[5]; 5% significance level,significantly lower
same,Ashcroft score,[5]; [7],2.2±0.3
same,Lung hydroxyproline value,[5]; [7],58.7±10.1 µg/left lung
same,mutagenesis effect,[6],no mutagenesis effect
